Source: patent US7220725B2, “Pharmaceutical composition comprising an analgesic peptide and method for treating pain” (S.I.S. Shulov Institute for Science Ltd., priority 2000, dated 2007)
Square brackets hold non-standard residues; d marks the D form. * marks the point of attachment. pGlu = O=C1CC[C@@H](C(=O)O)N1; Octanoyl = CCCCCCCC(=O)*

Test system: HCl induced pain
Assay: Analgesic assay: licks after subcutaneous HCl injection following topical ointment
Format: in vivo, hamsters
Protocol: In each test, a few tens of hamsters of similar weight and age were used. The hamsters were divided into groups according to the number of samples to be tested. Ointment (50% Lanolin and 50% Vaseline) containing the tested substance was applied to the animal's fur on the back region. The fur was not removed so as to ensure that no damage to the skin occurred. A control group of hamsters was treated with ointment without the fraction of the invention. Hamsters were treated by topical application for 6, 14, 21 or 28 consecutive days. The test for analgesity was conducted following the last application of the ointment. In an alternate protocol, analgesity was tested following a single application of the ointment.
Subsequently to application of the ointment, the hamsters “clean” themselves by dispersing the ointment all over their body with their tongue and legs. Thus, some of the ointment is introduced into the oral cavity and possibly also into the intestine of the hamsters.
In a typical test, a constant amount of ointment with or without an analgesic substance is applied to each animal for a predetermined period of one or more days. Following this period, pain is induced by a subcutaneous injection of 0.5 ml of 1N HCl/0.1 kg body weight in the femur region. The hamsters respond to the HCl injection by touching the area of injection with the tongue, this being called a “lick”. 20 minutes after injection the hamster is observed for 60 min and the number of “licks” are counted. The number of “licks” serves as a quantitative indication of the HCl induced pain.
The analgesic effect is determined by comparing the mean number of “licks” in control animals to the number in treated animals. The significance of the difference was determined using t-test statistics.
0.6 mg of pENW, pENWK-C8 or pENWGAT (a dimer of pENW) were dissolved in 5 ml of DDW, mixed by an ultrasonic mixer for 2 minutes and then dissolved in […] of ointment. The final peptide concentration was 0.002 mg/gr.
6 applications were made over a period of 4 weeks. The test for analgesity was conducted 10 days following the last application of the ointment.
Compositions at a concentration of 0.020 mg/g were prepared as in Example 1 containing the following active ingredients: pENW, pEEW, or pENTW or pENWT. 6 applications were made over a period of 5 weeks. The results are summarized below:
A composition containing pENW—C8 at a concentration of 0.002 mg/g ointment was prepared as in Example 1. A single application was made to the animals, and analgesity was assayed 11, 23 and 48 days post-application. Ointment without an active substance was applied to the control animals.

[1] = Example 1: 0.002 mg/gr in ointment, topical, 6 applications over 4 weeks, tested 10 days after last application, control 113.9
[2] = Example 2: 0.020 mg/g in ointment, topical, 6 applications over 5 weeks, control 117

pGlu-Asn-Trp-O-octyl [pENW—C8]
mean number of licks (Example 3: 0.002 mg/g ointment, single application, 11 days post application, control 106): 66 | mean number of licks (Example 3: 0.002 mg/g ointment, single application, 23 days post application, control 106): 35.7 | mean number of licks (Example 3: 0.002 mg/g ointment, single application, 48 days post application, control 106): 62.4

pGLU-ASN-TRP-LYS(octanoyl)-OH ([pGlu]NWK(Octanoyl)-OH; SMILES CCCCCCCC(=O)NCCCC[C@H](NC(=O)[C@H](Cc1c[nH]c2ccccc12)NC(=O)[C@H](CC(N)=O)NC(=O)[C@@H]1CCC(=O)N1)C(=O)O) [pENWK-C8]
mean number of licks [1]: 37.9

pGLU-ASN-TRP—OH [pENW]
mean number of licks [1]: 59.7 | mean number of licks [2]: 44

pGLU-GLU-TRP—OH [pEEW]
mean number of licks [2]: 35
